From US10501516B2, “Peptide compound” (TAKEDA PHARMACEUTICAL COMPANY LIMITED, priority 2016, dated 2019) come the findings set out here.

pEC50: −log10 of the molar value. Square brackets hold non-standard residues; d marks the D form. Side chains are listed from the residue outwards. Peptide text beside a SMILES is read from it. * marks the point of attachment. C18 diacid = O=C(O)CCCCCCCCCCCCCCCCC(=O)*; NMeY = CN[C@@H](Cc1ccc(O)cc1)C(=O)O; αMeF = C[C@](N)(Cc1ccccc1)C(=O)O; Iva = CC[C@](C)(N)C(=O)O; Aib = CC(C)(N)C(=O)O

Data set [1] concerns the target T1, human GLP-1R (Homo sapiens, UniProt P43220).
T1 construct: expressed in transfected cells; host or cells: CHO-K1 Cre-luc reporter cells (hGLP-1R/Crel cells)
Description: Reporter assay of human GLP-1R gene (agonist activity, intracellular cAMP as index). It is filed as cell-based. The settings on record: Cre-luc reporter, hGLP-1R/Crel cells (CHO-K1), 4 hours. The text has this: (§1) Evaluation of Agonist Activity Against Human NPY2R, Human GIPR, and Human GLP-1R Using Change in Intracellular cAMP Concentration as Index
The human GLP-1R gene having a sequence identical to the sequence of GenBank Accession No. NM_002062 was cloned into pIRESneo3 vector (Clontech Laboratories, Inc.) to prepare hGLP-1R/pIRESneo3. This vector was introduced to the Cre-luc reporter cells obtained in (1) to obtain transformants. Next, a cell line induced to express luciferase, i.e., hGLP-1R/Crel cells, were selected from the obtained transformants by the addition of human GLP-1(7-37) peptide.
The hGIPR/CRE-LUC/CHO-K1 cells or the hGLP-1R/Crel cells were inoculated at a cell density of 25 μL/well (5,000 cells/well) to a 384-well white plate (Corning, 3570), and cultured overnight in Ham F12 medium containing 10% fetal bovine serum, 100 U/mL penicillin and 100 μg/mL streptomycin in a CO2 incubator of 37° C. On the next day, a medium containing a test compound was added at a concentration of 5 μL/well to the cells, and the resultant cells were incubated for 4 hours in a CO2 incubator of 37° C. to give the final concentration of 1 μM. SteadyGlo (Promega) was added thereto at a concentration of 30 μL/well, and the mixture was shaken with light shielded. After 30 minutes, the luciferase activity was measured using a plate reader Envision (PerkinElmer). For the GIPR agonist activity, the luciferase activity in the presence of 10 μM GIP was defined as 100%, and the luciferase activity from the addition of DMSO instead of the test compound was defined as 0%. The GIPR agonist activity was calculated with a rise in intracellular cAMP concentration as an index.
For the GLP-1R agonist activity, assay similar to above was conducted using the hGLP-1R/Crel cells. The luciferase activity in the presence of 10 μM GLP-1 was defined as 100%, and the luciferase activity from the addition of DMSO instead of the test compound was defined as 0%. The GLP-1R agonist activity was calculated with a rise in intracellular cAMP concentration as an index.

For data set [2], the target named is T2, human GIPR (Homo sapiens, UniProt P48546).
T2 construct: expressed in transfected cells; host or cells: CHO-K1 Cre-luc reporter cells (hGIPR/CHO-K1, also called hGIPR/CRE-LUC/CHO-K1)
T2 sequence (P48546 22-466): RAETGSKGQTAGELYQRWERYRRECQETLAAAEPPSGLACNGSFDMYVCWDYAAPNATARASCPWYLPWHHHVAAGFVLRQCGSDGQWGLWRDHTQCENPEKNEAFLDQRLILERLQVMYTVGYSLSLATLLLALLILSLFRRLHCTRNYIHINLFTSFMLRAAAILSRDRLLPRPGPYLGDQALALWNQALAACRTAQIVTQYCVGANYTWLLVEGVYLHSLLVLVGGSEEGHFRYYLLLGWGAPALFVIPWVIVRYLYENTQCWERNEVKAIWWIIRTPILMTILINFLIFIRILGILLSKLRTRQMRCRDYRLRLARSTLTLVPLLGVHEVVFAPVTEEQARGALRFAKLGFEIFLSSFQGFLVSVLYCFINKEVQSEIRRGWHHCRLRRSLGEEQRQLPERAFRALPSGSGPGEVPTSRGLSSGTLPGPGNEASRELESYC
Description: Reporter assay of human GIPR gene (agonist activity, intracellular cAMP as index). It is filed as cell-based. The settings on record: Cre-luc reporter, hGIPR/CHO-K1 cells, 4 hours.

For data set [3], the target named is T3, human NPY2R (Homo sapiens, UniProt P49146).
T3 construct: expressed in transfected cells; host or cells: CHO-K1 Cre-luc reporter cells (pAKKO1114/hNPY2R#481 No. 88 cells)
T3 sequence (P49146 1-381): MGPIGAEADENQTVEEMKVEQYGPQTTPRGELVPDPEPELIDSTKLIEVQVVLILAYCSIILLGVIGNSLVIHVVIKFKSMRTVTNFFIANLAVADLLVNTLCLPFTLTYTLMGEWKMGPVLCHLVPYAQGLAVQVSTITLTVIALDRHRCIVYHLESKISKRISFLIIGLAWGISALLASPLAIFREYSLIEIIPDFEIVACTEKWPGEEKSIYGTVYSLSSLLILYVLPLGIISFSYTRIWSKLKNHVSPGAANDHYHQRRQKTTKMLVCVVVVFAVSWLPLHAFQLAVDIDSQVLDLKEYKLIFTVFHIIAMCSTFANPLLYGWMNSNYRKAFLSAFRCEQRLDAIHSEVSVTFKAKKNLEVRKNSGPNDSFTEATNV
Description: Reporter assay of human NPY2R gene (agonist activity, decrease in intracellular cAMP as index). It is filed as cell-based. The settings on record: Cre-luc reporter, hNPY2R CHO-K1 cells, forskolin 1.2 μM, 4 hours; read-out: Agonist activity (EC50) hY2R.
From the text: as §1
The human NPY2R gene having a sequence identical to the sequence of GenBank Accession No. AC104407 was cloned into pAKKO1114 vector to prepare hNPY2R/pAKKO1114. Next, pGL4.29 (Promega) was introduced to CHO-K1 cells, which were then screened with hygromycin to construct Cre-luc reporter cells. These cells were cotransfected with hNPY2R/pAKKO1114 and pcDNA3.1 (Life Technologies Corp.), and the cells were screened with geneticin. Next, a cell line induced to express luciferase, i.e., pAKKO1114/hNPY2R#481 No. 88 cells, were selected from the obtained transformants by the addition of human PYY (3-36).
The pAKKO1114/hNPY2R#481 No. 88 cells were inoculated at a cell density of 25 μL/well (5,000 cells/well) to a 384-well white plate (Corning, 3570), and cultured overnight in Ham F12 medium containing 10% fetal bovine serum, 100 U/mL penicillin and 100 μg/mL streptomycin in a CO2 incubator of 37° C. On the next day, the medium was removed, and an assay medium (Ham F12 medium containing 0.1% BSA, 100 U/mL penicillin and 100 μg/mL streptomycin) containing forskolin (final concentration: 1.2 μM) was added at a concentration of 25 μL/well to the cells. Next, an assay medium containing a test compound was added at a concentration of 5 μL/well to the cells, and the resultant cells were incubated for 4 hours in a CO2 incubator of 37° C. to give the final concentration of 1 μM. SteadyGlo (Promega) was added thereto at a concentration of 30 μL/well, and the mixture was left standing for 20 minutes with light shielded. The luciferase activity was measured using a plate reader Envision (PerkinElmer). The luciferase activity from the addition of DMSO was defined as 100%, and the luciferase activity from the addition of 1 μM human PYY(3-36) instead of the test compound was defined as 0%. The NPY2R agonist activity was calculated with a decrease in intracellular cAMP concentration as an index.

In data set [4] the test system is Male C57BL/6J mice. Description: Conditioned taste aversion (CTA) test. In kind it is in vivo, mouse. The settings on record: 10 nmol/kg s.c. The procedure:
Male C57BL/6J (9 weeks old) mice were habituated to time-restricted bottled water supply (2-3 hours/day) and subcutaneous injection of saline for 1 week. Mice were divided into the groups based on the data of body weight and water intake. CTA test was performed according to the following protocol. On day 1 for the first conditioning, mice were given 0.1% sodium saccharin solution to drink for 3 hours. Ten-minutes after supplying the saccharin solution, vehicles, liraglutides and P41 were administered subcutaneously. […] On day 2, mice were given tap water for 3 hours and subcutaneous injection of saline after water supply. On day 3, the second conditioning was conducted as the same procedure used on day 1. On day 4, mice were given tap water for 3 hours without subcutaneous injection. On day 5, both tap water and saccharin solution were supplied to mice for 3 hours without subcutaneous injection and the intake of each fluid was measured. Saccharin preference ratio (%) was calculated according to the following equation: {(amount of saccharin intake)/(amount of saccharin intake+amount of water intake)}×100.

T1 sequence (P43220 24-463): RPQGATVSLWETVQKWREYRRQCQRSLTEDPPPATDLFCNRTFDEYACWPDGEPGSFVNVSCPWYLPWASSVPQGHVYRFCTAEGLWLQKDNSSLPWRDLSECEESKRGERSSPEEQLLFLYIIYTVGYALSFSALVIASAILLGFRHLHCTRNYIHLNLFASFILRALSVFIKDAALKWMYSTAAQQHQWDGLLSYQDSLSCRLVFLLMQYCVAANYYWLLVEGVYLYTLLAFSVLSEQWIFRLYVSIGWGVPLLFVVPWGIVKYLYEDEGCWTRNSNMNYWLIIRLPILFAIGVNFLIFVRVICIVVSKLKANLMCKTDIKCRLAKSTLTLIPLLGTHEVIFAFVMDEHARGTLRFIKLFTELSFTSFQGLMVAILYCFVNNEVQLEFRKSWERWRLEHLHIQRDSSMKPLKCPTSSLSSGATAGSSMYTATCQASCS

With `CC[C@H](C)[C@H](NC(=O)[C@H](CO)NC(=O)[C@H](CCCCNC(=O)CNC(=O)CNC(=O)CNC(=O)CNC(=O)CCCCCCCCCCCCCCCCC(=O)O)NC(=O)[C@H](CC(=O)O)NC(=O)[C@H](CO)NC(=O)[C@@H](NC(=O)[C@](C)(Cc1ccccc1)NC(=O)[C@@H](NC(=O)CNC(=O)[C@H](CCC(=O)O)NC(=O)C(C)(C)NC(=O)[C@H](Cc1ccc(O)cc1)NC)[C@@H](C)O)[C@@H](C)O)C(=O)NC(C)(C)C(=O)N[C@@H](CC(C)C)C(=O)N[C@@H](CCC(=O)O)C(=O)N[C@@H](CCCCN)C(=O)N[C@@H](CCC(N)=O)C(=O)N[C@@H](CCCNC(=N)N)C(=O)N[C@@H](CCC(N)=O)C(=O)N[C@@](C)(CC)C(=O)N[C@@H](CCC(=O)O)C(=O)N[C@@H](Cc1ccccc1)C(=O)N[C@H](C(=O)N[C@@H](CCCNC(=N)N)C(=O)N[C@@H](Cc1c[nH]cn1)C(=O)N[C@@H](CC(C)C)C(=O)N[C@@H](CC(C)C)C(=O)N[C@@H](CC(N)=O)C(=O)N[C@@H](CCCCN)C(=O)NC(C)(C)C(=O)N[C@H](C(=O)N[C@@H](CCCNC(=N)N)C(=O)N[C@@H](CCC(N)=O)C(=O)N[C@@H](CCCNC(=N)N)C(=O)N[C@@H](Cc1ccc(O)cc1)C(N)=O)[C@@H](C)O)C(C)C` [Example 42] (H-[NMeY][Aib]EGT[αMeF]TSDK([Gly-Gly-Gly-Gly-C18 diacid])SI[Aib]LEKQRQ[Iva]EFVRHLLNK[Aib]TRQRY-NH2), the pEC50 in data set [1] is 8.89; in data set [2] it was 9.60; in data set [3], 8.59.

In the case of `CCCCCCCCCCCCCCCC(=O)N[C@@H](CCC(=O)NCCCC[C@H](NC(=O)[C@H](C)NC(=O)[C@H](C)NC(=O)[C@H](CCC(N)=O)NC(=O)CNC(=O)[C@H](CCC(=O)O)NC(=O)[C@H](CC(C)C)NC(=O)[C@H](Cc1ccc(O)cc1)NC(=O)[C@H](CO)NC(=O)[C@H](CO)NC(=O)[C@@H](NC(=O)[C@H](CC(=O)O)NC(=O)[C@H](CO)NC(=O)[C@@H](NC(=O)[C@H](Cc1ccccc1)NC(=O)[C@@H](NC(=O)CNC(=O)[C@H](CCC(=O)O)NC(=O)[C@H](C)NC(=O)[C@@H](N)Cc1cnc[nH]1)[C@@H](C)O)[C@@H](C)O)C(C)C)C(=O)N[C@@H](CCC(=O)O)C(=O)N[C@@H](Cc1ccccc1)C(=O)N[C@H](C(=O)N[C@@H](C)C(=O)N[C@@H](Cc1c[nH]c2ccccc12)C(=O)N[C@@H](CC(C)C)C(=O)N[C@H](C(=O)N[C@@H](CCCNC(=N)N)C(=O)NCC(=O)N[C@@H](CCCNC(=N)N)C(=O)NCC(=O)O)C(C)C)[C@@H](C)CC)C(=O)O` [Liraglutide, liraglutide, reference compound], the “induction of conditioned taste aversion (emetic effects)” value in data set [4] is recorded as “significantly decreased saccharin preference ratio”.
